The values below come from patent US20210046085A1, “TREATMENT OF ADVANCED ESTROGEN RECEPTOR POSITIVE BREAST CANCER” (Pantarhei Oncology B.V., priority 2018, published 2021).

Data set [1] deals with long term estrogen deprived MCF7 breast cancer cells (LTED cells). As to the kind of experiment: Cell count in long term estrogen deprived MCF7 breast cancer cells (LTED cells). Format: cell-based, human. The note with it: for Cell number per well: cell count on Day 7. Here is the method: LTED cells were plated in 6-well plates at a density of 30,000 cells per well. The cells were maintained in phenol red free IMEM with 5% charcoal stripped FBS (DCC-FBS). On Day 3, the medium was replaced with fresh phenol red free IMEM with 5% DCC-FBS. […] The final vehicle concentration was 0.1% ethanol for all experiments. Each treatment was done in duplicate.
On Day 5, the medium was changed and on Day 7 plates were subjected to a cell count analysis.

Data set [2] can be described thus: Single dose pharmacokinetics study of oral estriol in postmenopausal women. Format: in vivo, human. Particulars: for concentration at 24 h / concentration at 48 h / concentration at 72 h: female, human, plasma, read-out: Average plasma level; for Average plasma level: 0-24 hours. As to the method: A single dose pharmacokinetics study was conducted to evaluate the pharmacokinetics of different oral dosages of estriol in postmenopausal women. In total 16 women were assigned to two different groups (Cohort A and Cohort B). Each Cohort received two estriol treatments. […] A wash-out period of 7 days was taken into account between the treatments.

The conditions of data set [3]: cited from earlier work.
For data set [4] the following is noted: cited from earlier work. The source holds these as a separate data set.
For data set [5] the following is noted: single oral dose of 12 mg, postmenopausal women, cited from earlier work.
In data set [6] the test system is T-47D cells. The note with it: and higher (288 pg/ml); cited from earlier work.
In data set [7] the test system is MCF-7 cells. The note with it: and higher (288 pg/ml); cited from earlier work.
The test system of data set [8] is estrogen response element (ERE). Particulars: breast cancer cells; cited from earlier work.
Data set [9] has as its target T1, SHBG (Homo sapiens, UniProt P04278).
T1 sequence (P04278 30-402): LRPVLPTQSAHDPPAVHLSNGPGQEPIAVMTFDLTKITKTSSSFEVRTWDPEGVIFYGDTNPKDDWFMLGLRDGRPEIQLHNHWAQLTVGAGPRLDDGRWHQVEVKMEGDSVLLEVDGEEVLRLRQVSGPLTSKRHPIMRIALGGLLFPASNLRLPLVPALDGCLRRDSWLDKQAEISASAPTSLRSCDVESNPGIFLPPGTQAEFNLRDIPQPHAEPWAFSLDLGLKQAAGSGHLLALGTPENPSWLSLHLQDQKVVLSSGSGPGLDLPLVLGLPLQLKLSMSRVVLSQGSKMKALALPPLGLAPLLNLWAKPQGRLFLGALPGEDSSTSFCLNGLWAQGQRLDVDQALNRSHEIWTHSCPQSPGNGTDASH
Particulars: cited from earlier work.

Like-named read-outs stand apart in the source and are kept apart here.

On to `C[C@]12CC[C@@H]3c4ccc(O)cc4CC[C@H]3[C@@H]1C[C@@H](O)[C@@H]2O` [estriol, estra-1,3,5(10)-triene-3,16α,17β-triol], for which the “Growth of LTED cells (result in words)” value in data set [1] is recorded as “able to inhibit the growth of LTED cells”. Besides, the “Cell number per well” value in [1] (10^−5 M estriol) is given as 0.11 ×10^6; in data set [1] (10^−6 M estriol) it was 0.18 ×10^6; in data set [1] (10^−7 M estriol), 0.21 ×10^6; in [1] (10^−8 M estriol), 0.22 ×10^6; in [1] (10^−9 M estriol), 0.26 ×10^6; in data set [1] (10^−10 M estriol), 0.56 ×10^6. The results for the “Cell number per well” value in data set [1] (10^−11 M estriol) and in [1] (10^−12 M estriol) were 0.92 ×10^6 and 1.17 ×10^6, respectively. Further, the “Concentration at which peak inhibition is observed” value in data set [1] (no significant further inhibition at higher concentrations) was 10^−9 M. Moreover, the concentration at 24 h was 0.017 ± 0.011 ng/mL in [2] (oral dose 5 mg), 0.047 ± 0.067 ng/mL in [2] (oral dose 10 mg), 0.064 ± 0.041 ng/mL in [2] (oral dose 20 mg) and 0.121 ± 0.113 ng/mL in [2] (oral dose 40 mg). Also, the concentration at 48 h is 0.011 ± 0.015 ng/mL in data set [2] (oral dose 5 mg), 0.012 ± 0.015 ng/mL in [2] (oral dose 10 mg), 0.03 ± 0.01 ng/mL in data set [2] (oral dose 20 mg) and 0.052 ± 0.014 ng/mL in data set [2] (oral dose 40 mg). The concentration at 72 h in data set [2] (oral dose 5 mg) was found to be 0.002 ± 0.006 ng/mL; in data set [2] (oral dose 10 mg) it was 0.001 ± 0.002 ng/mL; in data set [2] (oral dose 20 mg), 0.008 ± 0.012 ng/mL; in [2] (oral dose 40 mg), 0.013 ± 0.008 ng/mL. Further, the Tolerability result in data set [2] (high oral dose levels, postmenopausal women) is on record as “well tolerated”. Also, in data set [2] (oral administration of 20 mg or 40 mg estriol), the “Plasma levels of estriol after 72 hours” value is “still significant after 72 hours”. Further, the “Plasma levels of estriol over 24 hours” value in data set [2] (oral administration of estriol 5-40 mg) is on record as “remained fairly constant over 24 hours”. In addition, the Average plasma level in data set [2] (oral dose 5 mg) came out at 28 pg/mL; in data set [2] (oral dose 10 mg), 39 pg/mL; in data set [2] (oral dose 20 mg), 103 pg/mL; in [2] (oral dose 40 mg) it was 110 pg/mL. Besides, the “Plasma levels of estriol late after dosing” value in data set [2] (single oral dose 5-40 mg) is given as “still measurable up to 72 hrs post dosing”. Further, the “Time of second increase after dosing (enterohepatic circulation)” value in data set [2] (single oral dose 5-40 mg) is 4 to 6 h. In [2] (single oral dose 5-40 mg, approximately), the “Time of peak levels after dosing” value fell in the range of 1 to 2 h. The “Half-life after oral administration” value in data set [3] (Maturitas (1990), 12:171-197) is 9 to 10 h; in data set [3] (Summary of Product Characteristics of Synapause), 1.5 h. Besides, in data set [3] (oral administration), the “Conjugated in the intestine to glucuronides” value was 80-90%. Further, the “Conjugated in the intestine to sulfates” value in data set [3] (oral administration) is recorded as 10-20%. Besides, the “Fraction that reaches the circulation” value in [3] (oral administration) is recorded as 1-2%. Moreover, the Peak levels in [4] (oral administration of 6 mg estriol) is 80 to 220 pg/mL; in [4] (oral administration of 12 mg) it was 150 to 490 pg/mL. In addition, the “Initial increase in estriol levels” value in data set [5] (conversion of pmol/L value) was 144 to 288 pg/mL; in data set [5] (lasted about four hours), 500 to 1000 pmol/L. For the same molecule, the “Concentration exerting a mitogenic effect” value in [6] and in data set [7] was ≥ 10^−9 M throughout. In addition, the “Concentration at which effects on ERE activation were visible” value in [8] is reported as 10^−10 M. The “Binding to SHBG” value in data set [9] is “does not bind to SHBG”.

As to `C[C@]12CC[C@@H]3c4ccc(O)cc4CC[C@H]3[C@@H]1CC[C@@H]2O` [estradiol, 17beta-estradiol], in data set [9] (Hammond GL et al., Climacteric 2008), the “Binding to SHBG” value is on record as “about 40%”.
